Results: patent publication US12466831B2, “Substituted amino triazolopyrimidine and amino triazolopyrazine adenosine receptor antagonists, pharmaceutical compositions and their use” (Merck Sharp & Dohme LLC, priority 2018, dated 2025)

Legend:
[1] = target: T1, human A2a adenosine receptor (Homo sapiens, UniProt P29274); test: A2a binding affinity using radioligand binding, Method (A); details: Method (A): [3H]SCH58261 filtration binding, membranes expressing human A2a
T1 construct: purchased Perkin Elmer RBHA2aM400UA; host or cells: HEK293 or CHO cells (recombinant expression)
From the text: (§1) Method (A) describes the procedure used to measure A2a binding affinity using radioligand binding. Method (B) describes the procedure used to measure A2a binding affinity using SPA technology. The method used to measure A2b binding affinity is also described below. The method used to determine the A2a IC50 value reported for each compound in the table is indicated next to the reported value. The A2b IC50 value measured using the A2b binding affinity assay is shown in the table next to the compound under the corresponding A2a value.
The A2a receptor affinity binding assay measured the amount of binding of a tritiated ligand with high affinity for the A2a adenosine receptor to membranes made from HEK293 or CHO cells recombinantly expressing the human A2a adenosine receptor, in the presence of varying concentrations of a compound of the invention. The data were generated using either filtration binding or a homogenous scintillation proximity assay (SPA).
Method (A): Measurement of A2a Binding Affinity Using Radioligand Binding
148 μL (5 μg/mL) membranes (Perkin Elmer, Cat. No. RBHA2aM400UA) and 2 μL compounds of the invention to be tested (test compound) were transferred to individual wells of a 96-well polypropylene assay plate and incubated for 15 to 30 minutes at room temperature. [^3H] SCH58261 ((7-(2-phenylethyl)-5-amino-2-(2-furyl)-pyrazolo-[4,3-e]-1,2,4-triazolo[1,5-c]pyrimidine)) was diluted in assay buffer (50 mM Tris pH 7.4, 10 mM MgCl2, 0.005% Tween20) to a concentration of 4 nM and 50 μL transferred to each well of the assay plate. To define total and non-specific binding, wells containing 1% DMSO and 1 μM ZM241385 (Tocris Bioscience, Cat. No. 1036) respectively, were also included. The assay plate was incubated at room temperature for 60 minutes with agitation. Using a FilterMate Harvester® (Perkin Elmer), the contents of the assay plate were filtered through a UniFilter-96® PEI coated plate (Perkin Elmer Cat. No. 6005274 or 6005277). Filtering was achieved by aspirating the contents of the assay plate for 5 seconds, then washing and aspirating the contents three times with ice-cooled wash buffer (50 mM Tris-HCl pH 7.4, 150 mM NaCl) and allowing the vacuum manifold to dry the plate for 30 seconds. The filter plate was incubated for at least 1 hour at 55° C. and allowed to dry. The bottom of the filter plate was sealed with backing tape. 40 μL Ultima Gold™ (Perkin Elmer, Cat. No. 6013329) was added to each well of the filter plate and the top of the plate was sealed with TopSeal-A PLUS® clear plate seal (Perkin Elmer, Cat. No. 6050185). The plate was incubated for at least 20 minutes, and then the amount of radioactivity remaining in each well was determined using a TopCount® (Perkin Elmer) scintillation counter. After normalization to total and non-specific binding, the percent effect at each compound concentration was calculated. The plot of percent effect versus the log of compound concentration was analyzed electronically using a 4-parameter logistic fit based on the Levenberg-Marquardt algorithm to generate IC50 values.

[2] = target: T2, human A2b adenosine receptor (Homo sapiens, UniProt P29275); test: A2b binding affinity, radioligand filtration binding assay; details: tritiated proprietary A2b antagonist, HEK293 membranes expressing human A2b
T2 construct: purchased Perkin Elmer ES-013-C; host or cells: HEK293 cells recombinantly expressing the receptor; membranes made from them
T2 sequence (P29275 1-332): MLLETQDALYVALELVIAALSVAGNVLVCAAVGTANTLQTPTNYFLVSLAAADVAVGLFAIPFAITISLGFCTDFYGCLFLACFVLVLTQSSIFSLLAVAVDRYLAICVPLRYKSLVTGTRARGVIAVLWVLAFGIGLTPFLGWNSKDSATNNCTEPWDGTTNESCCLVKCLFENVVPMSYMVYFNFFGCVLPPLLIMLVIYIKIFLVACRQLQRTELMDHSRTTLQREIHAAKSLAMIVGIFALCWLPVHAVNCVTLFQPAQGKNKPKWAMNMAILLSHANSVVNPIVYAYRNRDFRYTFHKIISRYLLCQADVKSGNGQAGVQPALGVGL
From the text: as §1
Measurement of A2b Binding Affinity
The reported affinity of the compounds of the invention for the human A2b adenosine receptor was determined experimentally using a radioligand filtration binding assay. This assay measures the amount of binding of a tritiated proprietary A2b receptor antagonist, in the presence and absence of a compound of the invention, to membranes made from HEK293 cells recombinantly expressing the human A2b adenosine receptor (Perkin Elmer, Cat. No. ES-013-C).
148 μL (135 μg/mL) membranes and 2 μL test compounds were transferred to individual wells of a 96-well polypropylene assay plate and incubated for 15 to 30 minutes at room temperature with agitation. Tritiated radioligand was diluted to a concentration of 14 nM in assay buffer (phosphate buffered saline without Magnesium and Calcium, pH 7.4; GE Healthcare Life Sciences, Cat. No. SH30256.01) and then 50 μL of the solution were transferred to each well of the assay plate. To define total and non-specific binding, wells containing 1% DMSO and 20 μM N-ethylcarboxamidoadenosine (Tocris Bioscience, Cat. No. 1691) respectively, were also included. The wells of the assay plate were incubated at room temperature for 60 minutes with agitation, then filtered using a FilterMate Harvester® (Perkin Elmer) or similar equipment through a UniFilter-96® PEI coated plate (Perkin Elmer Cat. No. 6005274 or 6005277). Filtering was achieved by aspirating the contents of the assay plate for 5 seconds, then washing and aspirating the contents three times with ice-cooled wash buffer (assay buffer supplemented with 0.0025% Brij58) and allowing the vacuum manifold to dry the plate for 30 seconds. The filter plate was incubated for at least 1 hour at 55° C. and allowed to dry. The bottom of the filter plate was then sealed with backing tape. 40 μL Ultima Gold™ (Perkin Elmer, Cat. No. 6013329) was added to each well of the filter plate and the top of the plate was sealed with TopSeal-A PLUS® clear plate seal (Perkin Elmer, Cat. No. 6050185). The plates were then incubated for at least 20 minutes, and then the amount of radioactivity remaining in each well was determined using a TopCount® (Perkin Elmer) scintillation counter. After normalization to total and non-specific binding, the percent effect at each compound concentration was calculated. The plot of percent effect versus the log of compound concentration was analyzed electronically using a 4-parameter logistic fit based on the Levenberg-Marquardt algorithm to generate IC50 values.

T1 sequence (P29274 whole entry): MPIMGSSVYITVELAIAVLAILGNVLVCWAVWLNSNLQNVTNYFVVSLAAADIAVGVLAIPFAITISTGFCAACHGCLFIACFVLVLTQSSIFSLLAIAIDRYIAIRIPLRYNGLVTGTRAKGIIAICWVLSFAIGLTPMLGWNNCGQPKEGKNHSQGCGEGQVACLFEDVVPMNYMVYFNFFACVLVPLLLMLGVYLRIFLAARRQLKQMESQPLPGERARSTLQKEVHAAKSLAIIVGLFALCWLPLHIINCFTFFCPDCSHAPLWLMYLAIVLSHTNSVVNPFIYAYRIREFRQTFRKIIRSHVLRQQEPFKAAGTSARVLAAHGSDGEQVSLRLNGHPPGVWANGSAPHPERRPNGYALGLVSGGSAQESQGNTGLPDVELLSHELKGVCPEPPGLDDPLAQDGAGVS

IC50 [1] [nM] | IC50 [2] [nM] | Compound
5.4 | 85.5 | CNC(=O)C(C)(C)n1cc(N2CCC[C@@H](c3nc4c(C)c(-c5ncco5)nc(N)n4n3)C2)cn1 [Example 3.4, (R)-2-(4-(3-(5-amino-8-methyl-7-(oxazol-2-yl)-[1,2,4]triazolo[1,5-c]pyrimidin-2-yl)piperidin-1-yl)-1H-pyrazol-1-yl)-N,2-dimethylpropanamide]
1.3 | 34.4 | Cc1c(-c2ncco2)nc(N)n2nc([C@@H]3CCCN(c4cnn(CC(F)(F)F)c4)C3)nc12 [Example 3.5, (R)-8-methyl-7-(oxazol-2-yl)-2-(1-(1-(2,2,2-trifluoroethyl)-1H-pyrazol-4-yl)piperidin-3-yl)-[1,2,4]triazolo[1,5-c]pyrimidin-5-amine]
0.9 | 389 | Cc1c(-c2ncco2)nc(N)n2nc([C@@H]3CCCN(c4cnn(C5CCOCC5)c4)C3)nc12 [Example 3.6, (R)-8-methyl-7-(oxazol-2-yl)-2-(1-(1-(tetrahydro-2H-pyran-4-yl)-1H-pyrazol-4-yl)piperidin-3-yl)-[1,2,4]triazolo[1,5-c]pyrimidin-5-amine]
4.7 | 224 | Cc1c(-c2ncco2)nc(N)n2nc([C@@H]3CCCN(c4cnn(CC(C)(C)O)c4)C3)nc12 [Example 3.7, (R)-1-(4-(3-(5-amino-8-methyl-7-(oxazol-2-yl)-[1,2,4]triazolo[1,5-c]pyrimidin-2-yl)piperidin-1-yl)-1H-pyrazol-1-yl)-2-methylpropan-2-ol]
2.7 | 191 | Cc1c(-c2ncco2)nc(N)n2nc([C@@H]3CCCN(c4cnn(CC5(O)CCC5)c4)C3)nc12 [Example 3.8, (R)-1-((4-(3-(5-amino-8-methyl-7-(oxazol-2-yl)-[1,2,4]triazolo[1,5-c]pyrimidin-2-yl)piperidin-1-yl)-1H-pyrazol-1-yl)methyl)cyclobutan-1-ol]
0.1 | 553 | Cc1nn(CC(C)(C)O)cc1N1CCC[C@@H](c2nc3c(C)c(-c4ncco4)nc(N)n3n2)C1 [Example 3.9, (R)-1-(4-(3-(5-amino-8-methyl-7-(oxazol-2-yl)-[1,2,4]triazolo[1,5-c]pyrimidin-2-yl)piperidin-1-yl)-3-methyl-1H-pyrazol-1-yl)-2-methylpropan-2-ol]
2.1 | 535 | Cc1c(-c2ncco2)nc(N)n2nc([C@@H]3CCCN(c4cnn(CC(C)(C)O)c4C)C3)nc12 [Example 3.10, (R)-1-(4-(3-(5-amino-8-methyl-7-(oxazol-2-yl)-[1,2,4]triazolo[1,5-c]pyrimidin-2-yl)piperidin-1-yl)-5-methyl-1H-pyrazol-1-yl)-2-methylpropan-2-ol]

Second part, the molecule before the results:

Compound | IC50 [1] [nM] | IC50 [2] [nM]
Cc1c(-c2ncco2)nc(N)n2nc([C@H]3C[C@@H](O)C3)nc12 [Example 2.8, (1s,3s)-3-(5-amino-8-methyl-7-(oxazol-2-yl)-[1,2,4]triazolo[1,5-c]pyrimidin-2-yl)cyclobutan-1-ol] | 72.9 | 250
Cc1c(-c2ncco2)nc(N)n2nc([C@@H]3CC[C@H](C)NC3)nc12 [Example 2.9, 8-methyl-2-((3R,6S)-6-methylpiperidin-3-yl)-7-(oxazol-2-yl)-[1,2,4]triazolo[1,5-c]pyrimidin-5-amine] | 129 | 2410
Cc1c(-c2ncco2)nc(N)n2nc([C@@H]3CC[C@H](C)N(c4cnn(CC(C)(C)O)c4)C3)nc12 [Example 2.12, 1-(4-((2S,5R)-5-(5-amino-8-methyl-7-(oxazol-2-yl)-[1,2,4]triazolo[1,5-c]pyrimidin-2-yl)-2-methylpiperidin-1-yl)-1H-pyrazol-1-yl)-2-methylpropan-2-ol] | 1 | 19.8
Cc1c(-c2ncco2)nc(N)n2nc([C@H]3CC[C@@H](C)N(c4cnn(CC(C)(C)O)c4)C3)nc12 [Example 2.13, 1-(4-((2R,5S)-5-(5-amino-8-methyl-7-(oxazol-2-yl)-[1,2,4]triazolo[1,5-c]pyrimidin-2-yl)-2-methylpiperidin-1-yl)-1H-pyrazol-1-yl)-2-methylpropan-2-ol] | 47.9 | 1310
CCn1cc(N2C[C@H](c3nc4c(C)c(-c5ncco5)nc(N)n4n3)CC[C@@H]2C)cn1 [Example 2.14, 2-((3R,6S)-1-(1-ethyl-1H-pyrazol-4-yl)-6-methylpiperidin-3-yl)-8-methyl-7-(oxazol-2-yl)-[1,2,4]triazolo[1,5-c]pyrimidin-5-amine] | 1.2 | 17.6
CCn1cc(N2C[C@@H](c3nc4c(C)c(-c5ncco5)nc(N)n4n3)CC[C@H]2C)cn1 [Example 2.15, 2-((3S,6R)-1-(1-ethyl-1H-pyrazol-4-yl)-6-methylpiperidin-3-yl)-8-methyl-7-(oxazol-2-yl)-[1,2,4]triazolo[1,5-c]pyrimidin-5-amine] | 20 | 2400
CCn1cc(N2C[C@H](c3nc4c(C)c(-c5cccc(F)c5)nc(N)n4n3)CC[C@@H]2C)cn1 [Example 2.16, 2-((3R,6S)-1-(1-ethyl-1H-pyrazol-4-yl)-6-methylpiperidin-3-yl)-7-(3-fluorophenyl)-8-methyl-[1,2,4]triazolo[1,5-c]pyrimidin-5-amine] | 8.8 | 82.6
CCn1cc(N2C[C@@H](c3nc4c(C)c(-c5cccc(F)c5)nc(N)n4n3)CC[C@H]2C)cn1 [Example 2.17, 2-((3S,6R)-1-(1-ethyl-1H-pyrazol-4-yl)-6-methylpiperidin-3-yl)-7-(3-fluorophenyl)-8-methyl-[1,2,4]triazolo[1,5-c]pyrimidin-5-amine] | 47.6 | 2150
CCn1cc(N2CCC[C@@H](c3nc4c(C)c(-c5ncco5)nc(N)n4n3)C2)cn1 [Example 3.3, (R)-2-(1-(1-ethyl-1H-pyrazol-4-yl)piperidin-3-yl)-8-methyl-7-(oxazol-2-yl)-[1,2,4]triazolo[1,5-c]pyrimidin-5-amine] | 0.9 | 155
